Test results: patent US4370489A, “Herbicidal compounds” (Hoechst Aktiengesellschaft, priority 1976, dated 1983)

Experiments:
[1] = tested on: Digitaria; assay: Post-emergence greenhouse pot trial, Digitaria (Example I, Table I); format: in vivo; details: greenhouse pots, 4 weeks
Procedure: (§1) Seeds of weed grasses were sown in pots filled with loamy soil and placed in the greenhouse for germination and emergence. As soon as the plants had developed 3 or 4 leaves, they were sprayed with wettable powder formulations, suspended in water, of compounds according to the invention.
(§2) The results and also the results of all following examples were evaluated 4 weeks later according to the following scheme:
(§3) 4 is still considered an acceptable herbicidal effect in weeds and a satisfactory preserving effect in crop plants (cf. Bolle, Nachrichtenblatt des Deutschen Pflanzenschutzdienstes 16, 1964, pages 92-94).
(§4) Effect on weed grasses in a post-emergence trial in pots
(§5) in the greenhouse (Evaluation scheme)

[2] = tested on: Setaria; assay: Post-emergence greenhouse pot trial, Setaria (Example I, Table I); format: in vivo; details: greenhouse pots, 4 weeks
Procedure: as §1, §2, §3, §4, §5

[3] = tested on: wild oat; assay: Post-emergence trial in the greenhouse, wild oat (Example VII, Table VII); format: in vivo; details: 31 kg/hectare, emulsion concentrate, 4 weeks after treatment
Procedure: as §2
In a greenhouse some of the compounds of the invention were sprayed on plants of wild oat, the compounds being used as emulsion concentrates.
(§6) Post-emergence trial in the greenhouse
Effect on wild oat 4 weeks after treatment
Dose 31 kg/hectare of active compound (as emulsion

[4] = tested on: Echinochloa; assay: Post-emergence greenhouse pot trial, Echinochloa (Example I, Table I); format: in vivo; details: greenhouse pots, 4 weeks
Procedure: as §1, §2, §3, §4, §5

[5] = tested on: Alopecurus; assay: Post-emergence greenhouse pot trial, annual blackgrass (Example I, Table I); format: in vivo, annual blackgrass (Alopecurus); details: greenhouse pots, 4 weeks
Procedure: as §1, §2, §3, §4, §5

[6] = tested on: Lolium; assay: Post-emergence greenhouse pot trial, Lolium (Example I, Table I); format: in vivo; details: greenhouse pots, 4 weeks
Procedure: as §1, §2, §3, §4, §5

[7] = tested on: weed grasses; assay: Pre-emergence greenhouse pot trial, weed grasses overall (Example V); format: in vivo; details: in words
Procedure: as §2
In a greenhouse the compounds to be tested were sprayed on the surface of the soil directly after sowing. […] Dicotyledonous crop plants (the same as used in Example I) were not damaged by the applied amounts.
Effect on weed grasses in a pre-emergence process (evalua-
tion scheme) experiment in pots in the greenhouse.

[8] = tested on: barnyard grass; assay: Post-emergence trial in the greenhouse, barnyard grass (Example VIII, Table VIII); format: in vivo; details: 31 kg/hectare, wettable powder, 4 weeks after treatment, 3 to 4 leaf-stage
Procedure: as §2
In a similar trial some of the compounds of the invention were sprayed in the form of wettable powder formulations on barnyard grass in the 3 to 4 leaf-stage.
as §6
Effect on barnyard grass 4 weeks after treatment
Dose 31 kg/hectare of active compound (as wettable

| SMILES | Effect on weed grasses (evaluation scheme number), Digitaria ([1]; 0.15 kg/hectare) | Effect on weed grasses (evaluation scheme number), Digitaria ([1]; 0.62 kg/hectare) | Effect on weed grasses (evaluation scheme number), Digitaria ([1]; 2.5 kg/hectare) | Effect on weed grasses (evaluation scheme number), Setaria ([2]; 0.15 kg/hectare) | Effect on weed grasses (evaluation scheme number), Setaria ([2]; 0.62 kg/hectare) | Effect on weed grasses (evaluation scheme number), Setaria ([2]; 2.5 kg/hectare) | effect (number) on wild oat [3] | Effect on weed grasses (evaluation scheme number), Echinochloa ([4]; 0.15 kg/hectare) | Effect on weed grasses (evaluation scheme number), Echinochloa ([4]; 0.62 kg/hectare) | Effect on weed grasses (evaluation scheme number), Echinochloa ([4]; 2.5 kg/hectare) | Effect on weed grasses (evaluation scheme number), Alopecurus ([5]; 0.15 kg/hectare) | Effect on weed grasses (evaluation scheme number), Alopecurus ([5]; 0.62 kg/hectare) | Effect on weed grasses (evaluation scheme number), Alopecurus ([5]; 2.5 kg/hectare) | Effect on weed grasses (evaluation scheme number), Lolium ([6]; 0.15 kg/hectare) | Effect on weed grasses (evaluation scheme number), Lolium ([6]; 0.62 kg/hectare) | Effect on weed grasses (evaluation scheme number), Lolium ([6]; 2.5 kg/hectare) | effect in pre-emergence treatment compared with comparative compound A [7] | effect (number) on barnyard grass [8] |
| --- | --- | --- | --- | --- | --- | --- | --- | --- | --- | --- | --- | --- | --- | --- | --- | --- | --- | --- |
| CCCCOC(=O)C(C)Oc1ccc(Oc2ccc(Br)cc2Cl)cc1 (stereo not drawn) [Compound 1d, 4-(2'-chloro-4'-bromophenoxy)-α-phenoxy-propionic acid n-butyl ester] | 6 (75.0 to <85.0) | 1 (100) | 1 (100) | 2 (97.5 to <100) | 1 (100) | 1 (100) | 1 (100) | 2 (97.5 to <100) | 1 (100) | 1 (100) | 3 (95.0 to <.97.5) | 2 (97.5 to <100) | 1 (100) | 6 (75.0 to <85.0) | 4 (90.0 to <95.0) | 2 (97.5 to <100) | Analogous results | – |
| CC(Oc1ccc(Oc2ccc(Br)cc2Cl)cc1)C(=O)O (stereo not drawn) [Compound 2b] | – | – | – | – | – | – | – | – | – | – | – | – | – | – | – | – | – | 3 (95.0 to <.97.5) |
| CC(Oc1ccc(Oc2ccc(Br)cc2Cl)cc1)C(=O)O (stereo not drawn) [Compound 2e] | – | – | – | – | – | – | – | – | – | – | – | – | – | – | – | – | – | 4 (90.0 to <95.0) |
| CC(Oc1ccc(Oc2ccc(Br)cc2Cl)cc1)C(=O)O (stereo not drawn) [Compound 2c] | – | – | – | – | – | – | – | – | – | – | – | – | – | – | – | – | – | 1 (100) |
| CCOC(=O)C(C)Oc1ccc(Oc2ccc(Br)cc2Cl)cc1 (stereo not drawn) [Compound 1b, 4-(2'-chloro-4'-bromophenoxy)-α-phenoxy-propionic acid ethyl ester] | 7 (65.0 to <75.0) | 1 (100) | 1 (100) | 1 (100) | 1 (100) | 1 (100) | 1 (100) | 1 (100) | 1 (100) | 1 (100) | 6 (75.0 to <85.0) | 1 (100) | 1 (100) | 6 (75.0 to <85.0) | 2 (97.5 to <100) | 1 (100) | Analogous results | – |
| CC(C)OC(=O)C(C)Oc1ccc(Oc2ccc(Br)cc2Cl)cc1 (stereo not drawn) [Compound 1c, 4-(2'-chloro-4'-bromophenoxy)-α-phenoxy-propionic acid isopropyl ester] | 7 (65.0 to <75.0) | 4 (90.0 to <95.0) | 1 (100) | 3 (95.0 to <.97.5) | 1 (100) | 1 (100) | 1 (100) | 1 (100) | 1 (100) | 1 (100) | 6 (75.0 to <85.0) | 3 (95.0 to <.97.5) | 1 (100) | 5 (85.0 to <90.0) | 4 (90.0 to <95.0) | 3 (95.0 to <.97.5) | Analogous results | 1 (100) |
| CC(C)COC(=O)C(C)Oc1ccc(Oc2ccc(Br)cc2Cl)cc1 (stereo not drawn) [Compound 1e, 4-(2'-chloro-4'-bromophenoxy)-α-phenoxy-propionic acid isobutyl ester] | – | – | – | – | – | – | 2 (97.5 to <100) | – | – | – | – | – | – | – | – | – | – | – |
| CC(Oc1ccc(Oc2ccc(Br)cc2Cl)cc1)C(=O)O (stereo not drawn) [Compound 2d] | – | – | – | – | – | – | – | – | – | – | – | – | – | – | – | – | – | 1 (100) |
